# Measured values as given in patent US8796241B2, “Therapy of tumors and infectious agents deficient in methylthioadenosine phosphorylase” (priority 2007, dated 2014).
# Experiments:
# MTAP(+) HF cells [1] = test: Coculture of HF and A549-ouaR cells, clonogenic assay; assay type: cell-based, human; details: addition of 5′-dAdo to DAP
# Method: Cell viability of adherent cell types was measured by clonogenic assay as follows: after releasing cells with trypsin and removing a portion of the cell suspension for Coulter counting, the remainder of the cell suspension was plated in serial dilutions in growth medium, without drugs. After a period sufficient for clones to reach a size visible by eye (usually 2 to 3 weeks), clones were stained with crystal violet in a saline/methanol solution. Dishes that had fewer than 100 clones were deemed suitable for counting. From these counts and from the dilution factors, the approximate number of viable cells, in the parent treatment dishes, was calculated. […] In clonogenic assays, clone size was often variable, especially after treatment with toxic drugs. Moreover, many of the very small clones may have arisen from cells detached during the weeks of incubation. […] Cloning efficiency for healthy, growing A549 cells was about 50%; for HF cells, efficiency was quite variable, ranging from 25 to 75% (perhaps because the HF cell stock varied, from experiment to experiment, in passage number).
# HF and A549-ouaR (a ouabain-resistant derivative of the human lung carcinoma cell line A549, isolated by Applicants) cells were cultured together in a medium containing DAP, and with or without 5′-dAdo. After 3 days, cultures were trypsinized and serially diluted into fresh medium for clonogenic assays. Some dishes were treated with 0.1 μM ouabain to kill HF cells and permit easy visualization of surviving A549-ouaR clones. Initial viable cells: HF cells, 11,000; A549-ouaR cells, 40,000.
# MTAP(+) HF cells [2] = test: Coulter counts of HF cell cultures; assay type: cell-based, human
# Method: For adherent cell types (e.g., HF, A549, MCF7) cells were plated in 60 mm -diameter plastic tissue culture dishes and incubated at 37° C. in a humidified 5% CO2 atmosphere, in Dulbecco's Modified Eagle's Medium (DME) with 10% fetal bovine serum (FBS). At the start of an experiment, medium was replaced with DME and 10% dialyzed FBS.
# (§1) For adherent cell types, cell numbers were determined periodically by releasing cells with trypsin (dead cells that were no longer adherent were removed by two prior rinses of the culture dish) and placing a portion of the resulting cell suspension in a Coulter counter. For cell types that grow in suspension, portions of the culture were counted directly, without trypsin treatment. Coulter counts of cells from each dish were done twice, and almost all experiments were done in duplicate. In the presentation of results, raw data for Coulter counts is given in some cases, while in others, counts have been rounded off to two to three significant figures. (Background Coulter counts—i.e., counts of diluent alone—were insignificant.)
# Cell cultures were treated with MeP, with or without 5′-dAdo or MTA, for 4 days. The cell cultures were then changed to fresh medium, with the addition of 30 μM Ade to inhibit further action of the analog. Two days later cultures were trypsinized and a portion of the suspension was counted.
# • A. F-Ade was added to cultures of HF cells, with varying amounts of 5′-dAdo. After 3 days, cell numbers were counted. • Initial cell count: 1,100 • After three days:
# • Cultures of human fibroblasts were treated with DAP, 5′-dAdo, MTA, adenine, or MTX. Thymidine (15 μM) was added to all cultures. • Initial count was: 1807 • Counts, as raw data, after 3 days of incubation, are shown below: […]
# • Human fibroblasts in culture were treated with 6-thioguanine (TG), 2,6-diaminopurine (DAP), or 5′-dAdo for 3 days. After trypsinization, cell numbers were counted. • Initial cell number: 296,000
# MTAP(−) HL-60 cells = test: Coulter counts of HL-60 suspension cultures; assay type: cell-based; details: Example 13
# Method: (§2) For cell types that grow in suspension (e.g., ML-1, HL-60, K-562) medium was RPMI-1640 with 10% FBS (undialyzed).
# as §1
# (§3) For cells that grow in suspension, the effect of treatments was assessed solely by changes in Coulter count.
# • HL-60 cells were grown in RPMI 1640 with 10% FBS. 5′-dAdo, adenine, or neither were added, and after 3 hours, 5-fluorouracil (FU) was added to selected dishes. Six days later, cell numbers were assessed in a Coulter counter. • Initial cell number/ml: 8,160
# MTAP(+) ML-1 cells = test: Coulter counts of ML-1 suspension cultures; assay type: cell-based
# Method: as §2, §1, §3
# • ML-1 cells were incubated in RPMI 1640 with 10% FBS with 5′-dAdo (60 μM) for 6 hours. 5-fluorouracil (FU), 6-thioguanine (TG), or 2,6-diaminopurine (DAP) were then added, and after 2 additional days, 0.5 ml was taken for Coulter counts. Initial Coulter count/ml: 308,000
# [3] = test system: MTAP(+) hematopoietic cell progenitors; test: Assay of colony-forming cells from mouse bone marrow; assay type: cell-based; details: 5′-dAdo at doses as low as 15 μM
# Excerpt: Method: The procedure for assay of colony-forming cells from mouse bone marrow was similar to methods described in the literature (see e.g., B. A. Teicher et al, Cancer Research, 47:513-518, 1987). In brief, cells were flushed from the femurs of Swiss mice, counted, and seeded into six-well tissue culture plates with supplemented McCoy's 5A medium, 15% FBS, 10 to 20% L929-cell conditioned medium as a source of colony-stimulating activity (L929 is MTAP-negative), 0.3% agar, and penicillin/streptomycin (op. cit. B. A. Teicher et al). Cells were seeded at two different densities: 50,000 and 250,000 cells per well. Control wells contained either no drugs, or adenine at 15 or 30 μM, or 5′-deoxyadenosine (5′-dAdo) at 15, 30, or 45 μM. Treatment wells contained 6-methylpurine (MeP) at 5 or 15 μM, 5′-deoxyadenosine (5′-dAdo) at 15 or 30 μM, and adenine at 15 or 30 μM, in various combinations. After eight days of incubation at 37° C. in a humidified 5% CO2 atmosphere, wells were fixed by the addition of 1 ml of 5% glutaraldehyde. Photographs were taken of a randomly selected portion of each well, as viewed (at fixed magnification) through a Nikon inverted microscope equipped with a camera.
smiles,measurement,setting,value
"C[C@H]1O[C@@H](n2cnc3c(N)ncnc32)[C@H](O)[C@@H]1O [5′-dAdo, 5′-deoxyadenosine]",protection of HF cells from DAP in coculture,MTAP(+) HF cells [1],protected
same,Coulter counts,"MTAP(+) HF cells [2]; 3 days, 5′-dAdo 60 μM, no F-Ade, initial count 1,100, x56 = cells/dish",8150
same,protection of HF cells against MeP toxicity,MTAP(+) HF cells [2]; Example 3,effectively protected
same,blocking of DAP toxicity in HF cells,MTAP(+) HF cells [2]; Example 8,blocked
same,blocking of inhibition by TG and by DAP in HF cells,MTAP(+) HF cells [2]; Example 15,blocked inhibition
same,protection of HF cells from the combined toxicity of TG and DAP,MTAP(+) HF cells [2]; Example 15,protected
same,protection from toxicity of F-Ade,MTAP(+) HF cells [2]; increasing concentration of 5′-dAdo,so does protection
same,protection of HL-60 cells from FU toxicity,MTAP(−) HL-60 cells,not protected
same,"Increase in cell number/ml, 60 μM 5′-dAdo","MTAP(+) ML-1 cells; 5′-dAdo 60 μM for 6 hours, then 2 days with FU 3 μM, TG 20 μM, DAP 50 μM where present, initial Coulter count/ml 308,000","918,000 /ml"
same,"protection against growth inhibition caused by FU, TG and DAP, individually and in combination",MTAP(+) ML-1 cells; Example 14,effectively protected
same,blocking of MeP toxicity to murine hematopoietic progenitors,[3],effectively blocked
